Data reported in publication PMC8635029 (Frontiers in Pharmacology, 2021).

What was measured:
[1] = target: T1, Nicotinic Acetylcholine α1, Bungarotoxin (Homo sapiens, UniProt P02708+P07510+Q07001); assay: In vitro SafetyScreen panel; assay type: binding
T1 construct: Eurofins Discovery (outsourced panel) PP223

human κ opioid receptor = target: T2, human κ opioid receptor (Homo sapiens, UniProt P41145); assay: cAMP accumulation assay (forskolin-induced); assay type: cell-based; conditions: 2 μM forskolin, 30 min; read-out: EC50 for inhibition of forskolin-induced cAMP accumulation
T2 construct: expressed in transfected cells; cell membranes
Experimental: PathHunter® U2OS OPRK1 β-Arrestin cell line (DiscoverX) was maintained in McCoy’s 5A with 10% FBS, 250 μg/ml Hygromycin B and 500 μg/ml G418. When the cells reached to 80–90% confluence, they were collected and resuspended in HBSS (1X) containing 50 mM HEPES, 5 mM IBMX and 1% BSA stabilizer (lance® UltracAMP Kit, PerkinElmer) by adjusting the cell density to 3 × 10^5 cells/mL. The cells were divided into 384-well white plate (Corning®3572) at a volume of 5 μL, and were treated with compounds and 2 μM forskolin (an inducer of intracellular cAMP formation) for 30 min at room temperature. Subsequently, 5 μL of Eu-cAMP Tracer Working Solution and 5 μL of Ulight-anti-cAMP Working Solution per well were added to reach a final volume of 20 μL. The plate was incubated for 1 h at room temperature in the dark. The cAMP levels were then determined by using a microplate reader with TR-FRET assay ([Wang et al., 2014]). The results was expressed as (1–Signal[compound]/Signal[control]) × 100.

[2] = target: T3, Leukotriene, Cysteinyl CysLT1 (Homo sapiens, UniProt Q9Y271); assay: In vitro SafetyScreen panel; assay type: binding
T3 construct: Eurofins Discovery (contract panel) Item PP223
Experimental: (§1) In vitro off-target pharmacological activities of HSK21542 were evaluated on 86 targets using a SafetyScreen panel (Item PP223, target selectivity panel) and the corresponding methods could be found at https://www.eurofinsdiscoveryservices.com/.

Histamine H2 = target: T4, Histamine H2 (Homo sapiens, UniProt P25021); assay: In vitro SafetyScreen panel; assay type: binding
T4 construct: Eurofins Discovery (contract panel) Item PP223
Experimental: as §1

C57BL/6J mice = assay: Hot-plate test; assay type: in vivo; conditions: hot-plate test ED50 / writhing test ED50
Experimental: The hot-plate test was performed according to previous reports ([DeWire et al., 2013]; [Hill et al., 2018a]; [Wang et al., 2018]). Female C57BL/6J mice were individually placed on a hot plate at 56°C and the latency to licking or jumping was then recorded. A cut-off time of 30 s was imposed in order to prevent tissue damage. Before drug administration, the latency of each mouse was measured and defined as the pre-drug value. The animals with a pre-drug value of greater than 20 s were excluded.

T2 sequence (P41145 whole entry): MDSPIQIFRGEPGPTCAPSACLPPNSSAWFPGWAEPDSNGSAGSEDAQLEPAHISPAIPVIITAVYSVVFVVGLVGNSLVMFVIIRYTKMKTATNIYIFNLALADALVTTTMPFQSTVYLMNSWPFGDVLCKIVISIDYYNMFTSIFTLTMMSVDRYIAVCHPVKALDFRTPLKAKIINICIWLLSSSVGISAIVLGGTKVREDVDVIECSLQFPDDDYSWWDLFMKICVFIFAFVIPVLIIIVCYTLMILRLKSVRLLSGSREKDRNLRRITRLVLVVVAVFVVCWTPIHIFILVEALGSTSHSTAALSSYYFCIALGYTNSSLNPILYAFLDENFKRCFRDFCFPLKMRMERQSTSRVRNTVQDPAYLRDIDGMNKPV
T3 sequence (Q9Y271 whole entry): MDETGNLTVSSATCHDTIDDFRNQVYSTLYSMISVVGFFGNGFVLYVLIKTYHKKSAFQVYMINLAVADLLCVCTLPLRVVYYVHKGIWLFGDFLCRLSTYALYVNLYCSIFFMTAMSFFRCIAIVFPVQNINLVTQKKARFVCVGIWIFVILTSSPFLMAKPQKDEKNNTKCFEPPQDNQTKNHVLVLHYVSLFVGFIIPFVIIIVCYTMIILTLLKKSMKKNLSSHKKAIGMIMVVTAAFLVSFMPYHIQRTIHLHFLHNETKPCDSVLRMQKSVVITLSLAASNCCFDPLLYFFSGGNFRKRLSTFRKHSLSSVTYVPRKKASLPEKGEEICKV
T1 sequence (P07510 23-517): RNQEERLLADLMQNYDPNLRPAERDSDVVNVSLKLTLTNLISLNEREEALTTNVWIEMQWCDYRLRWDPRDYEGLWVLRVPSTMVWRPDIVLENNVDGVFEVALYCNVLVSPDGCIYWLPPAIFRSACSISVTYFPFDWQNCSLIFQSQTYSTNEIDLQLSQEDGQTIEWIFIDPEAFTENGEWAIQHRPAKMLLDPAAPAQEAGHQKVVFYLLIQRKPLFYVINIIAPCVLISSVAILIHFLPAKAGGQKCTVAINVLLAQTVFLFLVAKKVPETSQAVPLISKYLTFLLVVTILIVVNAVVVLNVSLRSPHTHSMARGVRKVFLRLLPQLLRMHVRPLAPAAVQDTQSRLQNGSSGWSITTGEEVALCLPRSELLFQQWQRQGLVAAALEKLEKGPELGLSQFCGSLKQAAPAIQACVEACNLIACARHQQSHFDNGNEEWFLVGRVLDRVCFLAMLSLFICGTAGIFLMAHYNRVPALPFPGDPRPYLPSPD
T1 sequence (Q07001 22-517): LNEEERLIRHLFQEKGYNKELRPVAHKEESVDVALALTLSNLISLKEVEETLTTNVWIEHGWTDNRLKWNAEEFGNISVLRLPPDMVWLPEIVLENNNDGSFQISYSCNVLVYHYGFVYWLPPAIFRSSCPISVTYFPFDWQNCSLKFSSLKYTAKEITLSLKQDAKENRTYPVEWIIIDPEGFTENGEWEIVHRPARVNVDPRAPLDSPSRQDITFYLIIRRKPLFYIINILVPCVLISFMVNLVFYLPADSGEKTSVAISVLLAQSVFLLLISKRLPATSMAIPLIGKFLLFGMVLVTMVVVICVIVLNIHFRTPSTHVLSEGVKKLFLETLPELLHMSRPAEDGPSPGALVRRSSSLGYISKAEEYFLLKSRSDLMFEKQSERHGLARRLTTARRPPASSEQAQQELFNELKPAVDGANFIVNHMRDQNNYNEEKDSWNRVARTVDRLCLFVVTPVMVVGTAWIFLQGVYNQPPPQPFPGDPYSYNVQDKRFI
T1 sequence (P11230 24-501, further chain): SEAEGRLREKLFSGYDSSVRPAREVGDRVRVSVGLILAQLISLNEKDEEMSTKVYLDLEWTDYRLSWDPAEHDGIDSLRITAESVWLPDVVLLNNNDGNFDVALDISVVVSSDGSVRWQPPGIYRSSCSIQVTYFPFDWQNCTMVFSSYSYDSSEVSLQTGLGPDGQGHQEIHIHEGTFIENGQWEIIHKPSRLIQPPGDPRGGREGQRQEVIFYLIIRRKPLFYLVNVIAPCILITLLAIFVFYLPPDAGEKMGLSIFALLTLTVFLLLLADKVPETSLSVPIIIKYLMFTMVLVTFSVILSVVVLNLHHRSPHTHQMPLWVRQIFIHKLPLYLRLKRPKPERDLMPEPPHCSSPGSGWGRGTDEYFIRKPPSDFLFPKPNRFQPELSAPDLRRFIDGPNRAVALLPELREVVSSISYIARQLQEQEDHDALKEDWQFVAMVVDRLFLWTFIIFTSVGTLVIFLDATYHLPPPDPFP
T1 sequence (P02708 21-457): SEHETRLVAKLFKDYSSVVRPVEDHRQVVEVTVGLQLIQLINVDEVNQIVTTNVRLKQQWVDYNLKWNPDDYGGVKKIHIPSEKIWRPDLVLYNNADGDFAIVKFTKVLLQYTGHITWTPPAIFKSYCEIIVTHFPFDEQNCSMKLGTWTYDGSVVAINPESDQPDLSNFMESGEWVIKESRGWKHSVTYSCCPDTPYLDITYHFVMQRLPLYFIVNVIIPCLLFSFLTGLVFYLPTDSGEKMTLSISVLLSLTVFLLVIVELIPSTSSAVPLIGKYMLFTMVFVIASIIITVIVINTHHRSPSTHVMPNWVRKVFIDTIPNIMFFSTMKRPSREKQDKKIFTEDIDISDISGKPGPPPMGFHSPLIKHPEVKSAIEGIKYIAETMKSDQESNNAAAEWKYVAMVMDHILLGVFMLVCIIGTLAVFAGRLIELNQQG
T4 sequence (P25021 whole entry): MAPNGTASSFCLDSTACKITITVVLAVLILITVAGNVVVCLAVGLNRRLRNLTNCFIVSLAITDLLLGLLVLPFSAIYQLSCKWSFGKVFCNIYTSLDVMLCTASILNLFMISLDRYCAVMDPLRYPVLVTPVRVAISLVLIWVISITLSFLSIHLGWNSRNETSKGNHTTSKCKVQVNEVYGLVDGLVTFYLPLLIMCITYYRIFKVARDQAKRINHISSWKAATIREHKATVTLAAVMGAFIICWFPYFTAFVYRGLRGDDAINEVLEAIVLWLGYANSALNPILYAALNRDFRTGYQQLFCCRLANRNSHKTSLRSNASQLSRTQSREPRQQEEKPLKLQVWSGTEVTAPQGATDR

CC(=O)N1CC2(CCN(C(=O)[C@@H](CCCCN)NC(=O)[C@@H](CC(C)C)NC(=O)[C@@H](Cc3ccccc3)NC(=O)[C@H](N)Cc3ccccc3)CC2)C1 [HSK21542, 7-(D-phenylalanyl-D-phenylalanyl-D-leucyl-D-lysyl)-2-acetyl-2,7-diazaspiro (3.5)nonane]
inhibition at 10 µM [1]: -5% | EC50 (human κ opioid receptor): 2.41 pM | inhibition at 10 µM [2]: 8% | inhibition at 10 µM (Histamine H2): 8% | Therapeutic index (C57BL/6J mice): 116.6
